Experimental data taken from patent publication US20220331303A1, “USE OF AN OREXIN 2 RECEPTOR AGONIST FOR THE TREATMENT OF EXCESSIVE SLEEPINESS” (Takeda Pharmaceutical Company Limited, priority 2019, published 2022).

System: sleep-deprived healthy volunteers
Experiment: Polysomnography (PSG) of recovery sleep after sleep deprivation in healthy volunteers
Assay type: in vivo, human
Protocol: Exploratory objectives in sleep-deprived healthy volunteers were as follows: • 1. To compare the effects of Compound A (LD and HD) and modafinil (300 mg) on promoting wakefulness as measured by MWT. • 2. To determine PK-PD relationships for selected PD measures. • 3. To evaluate PK-BP relationships in BP change after Compound A administration. • 4. To compare various polysomnography (PSG) parameters between Day −1 (predose) and Day 2 (recovery sleep). • 5. To determine whether there is any difference in the PSG parameters on Day 2 (recovery sleep) between Compound A and placebo or modafinil. • 6. To evaluate the continuous electroencephalogram (EEG) obtained during the MWTs for power spectra changes for Compound A (LD and HD) versus placebo, Compound A (LD and HD) versus modafinil, and modafinil versus placebo.
During the day before dosing on Day 1, participants were administered the KSS at scheduled timepoints. A practice MWT session was performed on Day 1 treatment period 1 (only once during the entire study) to familiarize subjects with the procedures. Study drug was administered in the clinic in the evening on Day 1 of each treatment period. Subjects underwent the MWT and KSS at specified timepoints after the start of the infusion. Subjects were required to stay awake between the MWT tests. Following completion of the IV infusion on Day 2, subjects underwent an additional MWT test. When the final MWT test and cognitive testing were completed, subjects were allowed to sleep (recovery sleep) for approximately 6 hours. PSG recording was collected during this time. Subjects were discharged from the unit after completion on Day 2 with continuing actigraphy upon discharge (to begin on Day −6 before the next treatment period). The interval between each subsequent treatment period was at least 7 days to ensure that the subject's circadian rhythm had returned to a normal cycle. Subject's vital signs, including BP, were monitored during the dosing and testing period. Blood samples for determination of Compound A plasma concentrations were collected at specified timepoints on Days 1 and 2 of each treatment period. Subjects completed the Columbia-Suicide Severity Rating Scale (C-SSRS) during screening, before study drug administration, and before discharge on Day 2 of each treatment period.
The PSGs assess recovery sleep during the day after the end of the sleep deprivation period. There were no corrections for multiple comparisons. […]

[1] = Compound A 112 mg, recovery sleep
[2] = HD: Compound A 112 mg, recovery sleep
[3] = LD: Compound A 44 mg, recovery sleep

COC(=O)N1CCC[C@H](NS(C)(=O)=O)[C@@H]1CO[C@H]1CC[C@@H](c2ccccc2)CC1 [Compound A, methyl (2R,3S)-3-((methylsulfonyl)amino)-2-(((cis-4-phenylcyclohexyl)oxy)methyl)piperidine-1-carboxylate]
PSG N2 latency, LS mean difference vs placebo (Compound A 44 mg, recovery sleep): -2.74 min
PSG REM latency, LS mean difference vs placebo [1]: 29.64 min
PSG stage REM %, LS mean difference vs placebo [1]: −5.66%
PSG stage REM duration, LS mean difference vs placebo [1]: -19.73 min
Stage N3 Duration LS Mean (HD: Compound A 112 mg): 87.23 min
Stage N3 Duration LS Mean Difference vs placebo Estimate (HD: Compound A 112 mg): 5.85 min
Stage REM % LS Mean (HD: Compound A 112 mg): 15.72%
Stage REM % LS Mean Difference vs placebo Estimate (HD: Compound A 112 mg): −5.66%
Stage REM Duration LS Mean (HD: Compound A 112 mg): 46.83 min
Stage REM Duration LS Mean Difference vs placebo Estimate (HD: Compound A 112 mg): -19.73 min
Stage Wake % LS Mean (HD: Compound A 112 mg): 11.14%
Stage Wake % LS Mean Difference vs placebo Estimate (HD: Compound A 112 mg): 0.84%
Stage Wake Duration LS Mean (HD: Compound A 112 mg): 36.46 min
Stage Wake Duration LS Mean Difference vs placebo Estimate (HD: Compound A 112 mg): 0.93 min
Total Arousal Index LS Mean (HD: Compound A 112 mg): 9.18
Total Arousal Index LS Mean Difference vs placebo Estimate (HD: Compound A 112 mg): −0.81
Total Arousal LS Mean (HD: Compound A 112 mg): 46.54
Total Arousal LS Mean Difference vs placebo Estimate (HD: Compound A 112 mg): −3.87
Total Leg Movements LS Mean (HD: Compound A 112 mg): 16.94
Total Leg Movements LS Mean Difference vs placebo Estimate (HD: Compound A 112 mg): −2.01
Total Leg Movements N1 LS Mean (HD: Compound A 112 mg): 1.41
Total Leg Movements N1 LS Mean Difference vs placebo Estimate (HD: Compound A 112 mg): 0.15
Total Leg Movements N2 LS Mean (HD: Compound A 112 mg): 7.59
Total Leg Movements N2 LS Mean Difference vs placebo Estimate (HD: Compound A 112 mg): −0.95
Total Leg Movements N3 LS Mean (HD: Compound A 112 mg): 2.72
Total Leg Movements N3 LS Mean Difference vs placebo Estimate (HD: Compound A 112 mg): 1.09
Total Leg Movements REM LS Mean (HD: Compound A 112 mg): 4.18
Total Leg Movements REM LS Mean Difference vs placebo Estimate (HD: Compound A 112 mg): −1.57
Total Leg Movements with Awakening LS Mean (HD: Compound A 112 mg): 0.84
Total Leg Movements with Awakening LS Mean Difference vs placebo Estimate (HD: Compound A 112 mg): −0.91
Total Leg Movements with Microarous LS Mean (HD: Compound A 112 mg): 2.14
Total Leg Movements with Microarous LS Mean Difference vs placebo Estimate (HD: Compound A 112 mg): 0.13
Total Leg Movements with Resp Event LS Mean (HD: Compound A 112 mg): 0.06
Total Leg Movements with Resp Event LS Mean Difference vs placebo Estimate (HD: Compound A 112 mg): 0.01
Total Leg Movements without Arousal LS Mean (HD: Compound A 112 mg): 14.77
Total Leg Movements without Arousal LS Mean Difference vs placebo Estimate (HD: Compound A 112 mg): −2.15
Total Recording Time LS Mean (HD: Compound A 112 mg): 351.06 min
Total Recording Time LS Mean Difference vs placebo Estimate (HD: Compound A 112 mg): -5.85 min
Total Sleep Time LS Mean (HD: Compound A 112 mg): 298.98 min
Total Sleep Time LS Mean Difference vs Placebo Estimate (HD: Compound A 112 mg): -10.49 min
Wake After Persistent Sleep LS Mean (HD: Compound A 112 mg): 35.95 min
Wake After Persistent Sleep LS Mean Difference vs placebo Estimate (HD: Compound A 112 mg): 1.33 min
Wake After Sleep Onset LS Mean (HD: Compound A 112 mg): 36.46 min
Wake After Sleep Onset LS Mean Difference vs placebo Estimate (HD: Compound A 112 mg): 0.93 min
PSG Awakenings LS Mean [2]: 5.71
PSG Awakenings LS Mean Difference vs Placebo Estimate [2]: 1.22
PSG N1 Latency LS Mean [2]: 2.89 min
PSG N1 Latency LS Mean Difference vs Placebo Estimate [2]: -2.47 min
PSG N2 Latency LS Mean [2]: 4.72 min
PSG N2 Latency LS Mean Difference vs Placebo Estimate [2]: -1.93 min
PSG N3 Latency LS Mean [2]: 15.83 min
PSG N3 Latency LS Mean Difference vs Placebo Estimate [2]: -11.45 min
PSG Per. Slp LS Mean [2]: 4.50 min
PSG Per. Slp LS Mean Difference vs Placebo Estimate [2]: -2.37 min
PSG REM Latency LS Mean [2]: 84.57 min
PSG REM Latency LS Mean Difference vs Placebo Estimate [2]: 29.64 min
PSG Sleep Efficiency LS Mean [2]: 84.65%
PSG Sleep Efficiency LS Mean Difference vs Placebo Estimate [2]: −2.06%
PSG Sleep Onset LS Mean [2]: 2.94 min
PSG Sleep Onset LS Mean Difference vs Placebo Estimate [2]: -1.04 min
PSG Spontaneous Arousal Index LS Mean [2]: 8.26
PSG Spontaneous Arousal Index LS Mean Difference vs Placebo Estimate [2]: −0.67
PSG Spontaneous Arousal LS Mean [2]: 41.46
PSG Spontaneous Arousal LS Mean Difference vs Placebo Estimate [2]: −3.61
PSG Stage N1 % LS Mean [2]: 6.08%
PSG Stage N1 % LS Mean Difference vs Placebo Estimate [2]: 0.00%
PSG Stage N1 Duration LS Mean [2]: 18.05 min
PSG Stage N1 Duration LS Mean Difference vs Placebo Estimate [2]: -0.35 min
PSG Stage N2 % LS Mean [2]: 48.93%
PSG Stage N2 % LS Mean Difference vs Placebo Estimate [2]: 2.22%
PSG Stage N2 Duration LS Mean [2]: 147.83 min
PSG Stage N2 Duration LS Mean Difference vs Placebo Estimate [2]: 3.76 min
PSG Stage N3 % LS Mean [2]: 29.36%
PSG Stage N3 % LS Mean Difference vs Placebo Estimate [2]: 3.53%
Stage N3 Duration LS Mean (LD: Compound A 44 mg): 81.05 min
Stage N3 Duration LS Mean Difference vs placebo Estimate (LD: Compound A 44 mg): -0.34 min
Stage REM % LS Mean (LD: Compound A 44 mg): 20.70%
Stage REM % LS Mean Difference vs placebo Estimate (LD: Compound A 44 mg): −0.68%
Stage REM Duration LS Mean (LD: Compound A 44 mg): 60.76 min
Stage REM Duration LS Mean Difference vs placebo Estimate (LD: Compound A 44 mg): -5.80 min
Stage Wake % LS Mean (LD: Compound A 44 mg): 10.65%
Stage Wake % LS Mean Difference vs placebo Estimate (LD: Compound A 44 mg): 0.35%
Stage Wake Duration LS Mean (LD: Compound A 44 mg): 35.55 min
Stage Wake Duration LS Mean Difference vs placebo Estimate (LD: Compound A 44 mg): 0.02 min
Total Arousal Index LS Mean (LD: Compound A 44 mg): 10.07
Total Arousal Index LS Mean Difference vs placebo Estimate (LD: Compound A 44 mg): 0.08
Total Arousal LS Mean (LD: Compound A 44 mg): 47.56
Total Arousal LS Mean Difference vs placebo Estimate (LD: Compound A 44 mg): −2.85
Total Leg Movements LS Mean (LD: Compound A 44 mg): 12.59
Total Leg Movements LS Mean Difference vs placebo Estimate (LD: Compound A 44 mg): −6.35
Total Leg Movements N1 LS Mean (LD: Compound A 44 mg): 1.60
Total Leg Movements N1 LS Mean Difference vs placebo Estimate (LD: Compound A 44 mg): 0.34
Total Leg Movements N2 LS Mean (LD: Compound A 44 mg): 6.04
Total Leg Movements N2 LS Mean Difference vs placebo Estimate (LD: Compound A 44 mg): −2.51
Total Leg Movements N3 LS Mean (LD: Compound A 44 mg): 0.65
Total Leg Movements N3 LS Mean Difference vs placebo Estimate (LD: Compound A 44 mg): −0.97
Total Leg Movements REM LS Mean (LD: Compound A 44 mg): 3.44
Total Leg Movements REM LS Mean Difference vs placebo Estimate (LD: Compound A 44 mg): −2.31
Total Leg Movements with Awakening LS Mean (LD: Compound A 44 mg): 0.68
Total Leg Movements with Awakening LS Mean Difference vs placebo Estimate (LD: Compound A 44 mg): −1.07
Total Leg Movements with Microarous LS Mean (LD: Compound A 44 mg): 2.35
Total Leg Movements with Microarous LS Mean Difference vs placebo Estimate (LD: Compound A 44 mg): 0.34
Total Leg Movements with Resp Event LS Mean (LD: Compound A 44 mg): 0.16
Total Leg Movements with Resp Event LS Mean Difference vs placebo Estimate (LD: Compound A 44 mg): 0.11
Total Leg Movements without Arousal LS Mean (LD: Compound A 44 mg): 10.21
Total Leg Movements without Arousal LS Mean Difference vs placebo Estimate (LD: Compound A 44 mg): −6.71
Total Recording Time LS Mean (LD: Compound A 44 mg): 342.50 min
Total Recording Time LS Mean Difference vs placebo Estimate (LD: Compound A 44 mg): -14.40 min
Total Sleep Time LS Mean (LD: Compound A 44 mg): 291.34 min
Total Sleep Time LS Mean Difference vs Placebo Estimate (LD: Compound A 44 mg): -18.13 min
Wake After Persistent Sleep LS Mean (LD: Compound A 44 mg): 33.78 min
Wake After Persistent Sleep LS Mean Difference vs placebo Estimate (LD: Compound A 44 mg): -0.85 min
Wake After Sleep Onset LS Mean (LD: Compound A 44 mg): 35.55 min
Wake After Sleep Onset LS Mean Difference vs placebo Estimate (LD: Compound A 44 mg): 0.02 min
PSG Awakenings LS Mean [3]: 4.74
PSG Awakenings LS Mean Difference vs Placebo Estimate [3]: 0.25
PSG N1 Latency LS Mean [3]: 3.60 min
PSG N1 Latency LS Mean Difference vs Placebo Estimate [3]: -1.76 min
PSG N2 Latency LS Mean [3]: 3.91 min
PSG N2 Latency LS Mean Difference vs Placebo Estimate [3]: -2.74 min
PSG N3 Latency LS Mean [3]: 21.94 min
PSG N3 Latency LS Mean Difference vs Placebo Estimate [3]: -5.33 min
PSG Per. Slp LS Mean [3]: 5.96 min
PSG Per. Slp LS Mean Difference vs Placebo Estimate [3]: -0.91 min
PSG REM Latency LS Mean [3]: 75.10 min
PSG REM Latency LS Mean Difference vs Placebo Estimate [3]: 20.16 min
PSG Sleep Efficiency LS Mean [3]: 84.95%
PSG Sleep Efficiency LS Mean Difference vs Placebo Estimate [3]: −1.77%
PSG Sleep Onset LS Mean [3]: 2.71 min
PSG Sleep Onset LS Mean Difference vs Placebo Estimate [3]: -1.28 min
PSG Spontaneous Arousal Index LS Mean [3]: 8.58
PSG Spontaneous Arousal Index LS Mean Difference vs Placebo Estimate [3]: −0.36
PSG Spontaneous Arousal LS Mean [3]: 40.21
PSG Spontaneous Arousal LS Mean Difference vs Placebo Estimate [3]: −4.86
PSG Stage N1 % LS Mean [3]: 5.69%
PSG Stage N1 % LS Mean Difference vs Placebo Estimate [3]: −0.39%
PSG Stage N1 Duration LS Mean [3]: 16.29 min
PSG Stage N1 Duration LS Mean Difference vs Placebo Estimate [3]: -2.12 min
PSG Stage N2 % LS Mean [3]: 46.04%
PSG Stage N2 % LS Mean Difference vs Placebo Estimate [3]: −0.66%
PSG Stage N2 Duration LS Mean [3]: 134.21 min
PSG Stage N2 Duration LS Mean Difference vs Placebo Estimate [3]: -9.86 min
PSG Stage N3 % LS Mean [3]: 27.65%
PSG Stage N3 % LS Mean Difference vs Placebo Estimate [3]: 1.82%
PSG sleep efficiency, arousals, and total sleep compared with placebo (both Compound A groups (44 and 112 mg), recovery sleep): not different from placebo
